Test results as given in ChEMBL document CHEMBL4706703, “Novel 3-benzylidene/benzylphthalide Mannich base derivatives as potential multifunctional agents for the treatment of Alzheimer's disease” (Bioorg Med Chem, 2021).

Legend:
[1] = target: Acetylcholinesterase (Electrophorus electricus) (UniProt O42275); test: Inhibition of Electrophorus electricus AChE at 10 uM using acetylthiocholine iodide as substrate incubated for 15 mins by Ellman's method relative to control
[2] = target: butyrylcholinesterase (BuChE) (Rattus norvegicus, UniProt Q9JKC1); test: Inhibition of rat serum BuChE at 10 uM using butyrylthiocholine iodide as substrate incubated for 15 mins by Ellman's method relative to control; type: cell-free; conditions: probe butyrylthiocholine iodide
MAO-A = target: T1, MAO-A (Homo sapiens, UniProt P21397); test: Inhibition of recombinant human MAOA at 10 uM using kynuramine as substrate preincubated for 30 mins followed by substrate addition and measured after 30 mins by fluorescence assay relative to control; conditions: probe kynuramine, time 60 min
T1 sequence (P21397 whole entry): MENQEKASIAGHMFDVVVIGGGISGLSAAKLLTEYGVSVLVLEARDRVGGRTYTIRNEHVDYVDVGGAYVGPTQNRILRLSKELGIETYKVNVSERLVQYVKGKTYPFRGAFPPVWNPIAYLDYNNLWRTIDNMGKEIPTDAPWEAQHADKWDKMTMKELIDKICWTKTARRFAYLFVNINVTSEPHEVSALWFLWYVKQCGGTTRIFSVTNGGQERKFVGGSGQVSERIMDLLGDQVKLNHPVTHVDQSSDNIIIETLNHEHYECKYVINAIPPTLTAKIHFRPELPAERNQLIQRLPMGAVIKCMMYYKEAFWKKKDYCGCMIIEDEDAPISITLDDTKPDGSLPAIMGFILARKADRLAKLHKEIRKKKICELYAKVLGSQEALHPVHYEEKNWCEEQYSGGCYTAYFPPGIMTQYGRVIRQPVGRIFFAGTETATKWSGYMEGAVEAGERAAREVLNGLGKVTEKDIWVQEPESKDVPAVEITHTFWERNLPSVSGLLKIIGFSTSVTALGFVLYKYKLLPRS

[3] = target: T2, Amine oxidase [flavin-containing] B (Homo sapiens, UniProt P27338); test: Inhibition of recombinant human MAOB at 10 uM using kynuramine as substrate preincubated for 30 mins followed by substrate addition and measured after 30 mins by fluorescence assay relative to control; conditions: 0.5 h
T2 sequence (P27338 whole entry): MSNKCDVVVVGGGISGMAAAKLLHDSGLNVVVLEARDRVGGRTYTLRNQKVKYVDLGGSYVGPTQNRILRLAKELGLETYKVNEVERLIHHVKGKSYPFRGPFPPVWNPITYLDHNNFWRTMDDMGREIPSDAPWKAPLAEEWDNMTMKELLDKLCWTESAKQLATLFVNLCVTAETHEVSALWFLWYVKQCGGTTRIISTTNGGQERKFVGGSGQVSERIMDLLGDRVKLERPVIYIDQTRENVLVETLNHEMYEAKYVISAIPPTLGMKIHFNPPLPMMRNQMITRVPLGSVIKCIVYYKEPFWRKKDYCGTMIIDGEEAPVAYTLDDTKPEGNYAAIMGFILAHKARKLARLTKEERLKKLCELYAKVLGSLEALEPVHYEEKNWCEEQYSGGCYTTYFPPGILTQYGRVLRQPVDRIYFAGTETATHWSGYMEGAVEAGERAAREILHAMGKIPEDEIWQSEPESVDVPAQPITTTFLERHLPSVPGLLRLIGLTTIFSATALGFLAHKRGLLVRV

[4] = Antioxidant activity assessed as trolox equivalent of AAPH radical scavenging activity measured every min for 90 mins by ORAC-FL assay; type: functional
Acetylcholinesterase = Acetylcholinesterase (Electrophorus electricus, UniProt O42275); test: Inhibition of Electrophorus electricus AChE using acetylthiocholine iodide as substrate incubated for 15 mins by Ellman's method
[5] = target: Amyloid-beta precursor protein (Homo sapiens) (UniProt P05067); test: Inhibition of amyloid beta (1 to 42) (unknown origin) self aggregation at 25 uM after 24 hrs by thioflavin-T fluorescence method relative to control
Plasma = test: Antiplatelet activity in rat platelet-rich plasma assessed as inhibition of ADP-induced platelet aggregation at 33 uM preincubated for 30 mins followed by ADP addition measured within 5 mins by aggregometry relative to control; type: functional; conditions: time 30-35 min

Sequence of Acetylcholinesterase (O42275 whole entry): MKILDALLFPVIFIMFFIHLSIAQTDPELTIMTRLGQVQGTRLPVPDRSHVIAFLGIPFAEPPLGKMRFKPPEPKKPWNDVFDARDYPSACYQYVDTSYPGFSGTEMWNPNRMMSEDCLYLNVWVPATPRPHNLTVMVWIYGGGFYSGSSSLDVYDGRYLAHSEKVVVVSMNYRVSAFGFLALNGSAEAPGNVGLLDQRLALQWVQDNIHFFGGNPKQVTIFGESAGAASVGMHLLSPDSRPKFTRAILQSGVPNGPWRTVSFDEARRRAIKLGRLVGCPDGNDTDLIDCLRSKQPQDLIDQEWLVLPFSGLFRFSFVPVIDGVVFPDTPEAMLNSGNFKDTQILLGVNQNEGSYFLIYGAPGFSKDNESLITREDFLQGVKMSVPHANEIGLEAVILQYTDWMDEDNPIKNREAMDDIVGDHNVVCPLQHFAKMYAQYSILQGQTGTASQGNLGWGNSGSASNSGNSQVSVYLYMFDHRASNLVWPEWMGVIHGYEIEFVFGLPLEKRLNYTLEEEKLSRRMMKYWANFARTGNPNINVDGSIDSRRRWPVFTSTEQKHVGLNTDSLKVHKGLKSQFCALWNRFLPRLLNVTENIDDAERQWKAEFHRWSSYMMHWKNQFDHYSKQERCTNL
Sequence of Acetylcholinesterase (Electrophorus electricus) (O42275 24-633 limits assumed): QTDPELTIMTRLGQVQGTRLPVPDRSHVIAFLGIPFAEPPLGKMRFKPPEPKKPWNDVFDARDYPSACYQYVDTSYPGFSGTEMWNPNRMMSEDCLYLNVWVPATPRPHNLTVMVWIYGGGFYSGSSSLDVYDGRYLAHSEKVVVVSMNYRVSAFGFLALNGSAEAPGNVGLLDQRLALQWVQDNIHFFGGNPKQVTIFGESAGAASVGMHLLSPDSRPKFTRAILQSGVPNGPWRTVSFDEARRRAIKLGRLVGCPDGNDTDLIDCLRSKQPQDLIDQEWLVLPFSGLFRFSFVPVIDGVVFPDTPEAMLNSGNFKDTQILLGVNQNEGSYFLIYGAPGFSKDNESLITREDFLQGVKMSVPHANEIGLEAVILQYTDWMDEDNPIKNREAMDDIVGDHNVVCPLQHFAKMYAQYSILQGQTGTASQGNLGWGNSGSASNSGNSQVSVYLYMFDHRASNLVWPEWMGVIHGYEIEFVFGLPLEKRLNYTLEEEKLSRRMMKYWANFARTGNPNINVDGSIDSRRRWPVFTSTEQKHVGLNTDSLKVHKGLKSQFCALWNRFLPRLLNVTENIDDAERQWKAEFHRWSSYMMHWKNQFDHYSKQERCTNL
Sequence of butyrylcholinesterase (BuChE) (Q9JKC1 whole entry): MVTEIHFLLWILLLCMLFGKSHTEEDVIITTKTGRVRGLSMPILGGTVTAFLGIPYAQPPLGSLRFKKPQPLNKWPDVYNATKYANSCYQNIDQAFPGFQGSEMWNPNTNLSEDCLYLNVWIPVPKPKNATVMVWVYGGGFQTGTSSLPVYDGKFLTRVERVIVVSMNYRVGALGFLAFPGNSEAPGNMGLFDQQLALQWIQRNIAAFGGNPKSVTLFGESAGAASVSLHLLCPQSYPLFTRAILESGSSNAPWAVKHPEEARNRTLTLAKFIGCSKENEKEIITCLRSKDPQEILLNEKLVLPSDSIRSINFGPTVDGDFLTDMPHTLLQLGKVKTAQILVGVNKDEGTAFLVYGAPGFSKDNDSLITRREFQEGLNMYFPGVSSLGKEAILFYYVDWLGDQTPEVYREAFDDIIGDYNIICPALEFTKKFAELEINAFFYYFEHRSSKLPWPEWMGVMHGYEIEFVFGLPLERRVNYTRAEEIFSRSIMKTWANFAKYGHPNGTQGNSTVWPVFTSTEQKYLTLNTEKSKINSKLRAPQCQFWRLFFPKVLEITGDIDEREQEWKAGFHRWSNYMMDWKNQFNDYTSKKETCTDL
Sequence of Amyloid-beta precursor protein (Homo sapiens) (P05067 whole entry): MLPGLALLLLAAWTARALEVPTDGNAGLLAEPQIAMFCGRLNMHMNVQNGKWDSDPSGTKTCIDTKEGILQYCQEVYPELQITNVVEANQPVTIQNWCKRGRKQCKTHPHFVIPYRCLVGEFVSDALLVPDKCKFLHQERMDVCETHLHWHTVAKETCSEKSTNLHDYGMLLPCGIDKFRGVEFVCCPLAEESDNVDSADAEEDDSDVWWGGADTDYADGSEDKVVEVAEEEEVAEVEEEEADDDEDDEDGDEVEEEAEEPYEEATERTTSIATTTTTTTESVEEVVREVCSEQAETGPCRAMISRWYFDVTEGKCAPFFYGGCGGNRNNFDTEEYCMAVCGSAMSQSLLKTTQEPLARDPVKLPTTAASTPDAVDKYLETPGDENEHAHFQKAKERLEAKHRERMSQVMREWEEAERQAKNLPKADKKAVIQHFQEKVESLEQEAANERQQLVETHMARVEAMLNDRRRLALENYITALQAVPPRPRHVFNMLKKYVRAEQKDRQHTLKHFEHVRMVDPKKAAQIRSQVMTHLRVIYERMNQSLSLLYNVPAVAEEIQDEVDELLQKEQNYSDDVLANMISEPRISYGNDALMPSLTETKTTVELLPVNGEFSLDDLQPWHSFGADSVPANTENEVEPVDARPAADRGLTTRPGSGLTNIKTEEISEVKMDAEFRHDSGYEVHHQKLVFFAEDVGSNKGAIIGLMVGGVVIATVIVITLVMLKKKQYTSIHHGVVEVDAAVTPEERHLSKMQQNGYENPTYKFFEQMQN

| Compound | inhibition [1] [%] | inhibition at […], 10 µM [2] [%] | inhibition at 0.5 h, 10 µM (MAO-A) [%] | inhibition at 10 µM [3] [%] | Activity [4] [equiv] | IC50 (Acetylcholinesterase) [nM] | inhibition [5] [%] | inhibition at 33 µM (Plasma) [%] |
| --- | --- | --- | --- | --- | --- | --- | --- | --- |
| CCN(CC)c1c(O)cccc1/C=C1\OC(=O)c2cc(OC)c(OC)cc21 | 38 | < 5 | < 5 | 44.9 | 2.87 |  |  |  |
| COc1cc2c(cc1OC)/C(=C/c1ccc(N3CCOCC3)c(O)c1)OC2=O |  | < 5 | 5.3 | 50.2 | 1.77 | 9680 | 26.7 |  |
| CCN(CC)c1ccc(/C=C2/OC(=O)c3cc(OC)c(OC)cc32)cc1O |  | 5.7 | 48 | 49 | 4.48 | 26 | 26.1 | < 5 |
| COc1cc2c(cc1OC)/C(=C\c1cccc(O)c1N1CCCCC1)OC2=O | 42.8 | 16.4 | < 5 | 24.2 | 2.58 |  |  |  |
| CCN(CC)c1c(O)cccc1CC1OC(=O)c2cc(OC)c(OC)cc21 (stereo unspecified) | 16.3 | 12.5 | < 5 | < 5 | 2.78 |  |  |  |
| CCN(CC)c1c(O)cccc1/C=C1/OC(=O)c2cc(OC)c(OC)cc21 | 46.9 | 31.4 | < 5 | 44.6 | 2.53 |  |  |  |
| COc1cc2c(cc1OC)/C(=C/c1ccc(N3CCCC3)c(O)c1)OC2=O |  | 9.4 | 5.1 | 28.3 | 4.1 | 31 | 23 | < 5 |
| COc1cc2c(cc1OC)/C(=C\c1cccc(O)c1N1CCOCC1)OC2=O | 40.8 | 11.3 | < 5 | 10.1 | 2.06 |  |  |  |
| COc1cc2c(cc1OC)C(Cc1cccc(O)c1N1CCCCC1)OC2=O (stereo unspecified) | 12.6 | < 5 | < 5 | 15.6 | 1.44 |  |  |  |
| COc1cc2c(cc1OC)C(Cc1cccc(O)c1N1CCN(C)CC1)OC2=O (stereo unspecified) | 14 | < 5 | < 5 | < 5 | 2.13 |  |  |  |
| COc1cc2c(cc1OC)C(Cc1ccc(N3CCN(C)CC3)c(O)c1)OC2=O (stereo unspecified) | 42.4 | < 5 | 5.6 | 17 | 2.09 |  |  |  |
| COc1cc2c(cc1OC)/C(=C/c1cccc(O)c1N1CCCCC1)OC2=O | 41.1 | 6.7 | < 5 | 20.3 | 2.08 |  |  |  |
| COc1cc2c(cc1OC)/C(=C\c1cccc(O)c1N1CCCC1)OC2=O |  | 49.6 | < 5 | 12.5 | 2.46 | 19500 |  |  |
| CCN(CC)c1ccc(/C=C2\OC(=O)c3cc(OC)c(OC)cc32)cc1O |  | < 5 | < 5 | 39.4 | 2.7 | 72 | 28.6 | 12.4 |
| COc1cc2c(cc1OC)/C(=C\c1cccc(O)c1N1CCN(C)CC1)OC2=O |  | 5.9 | 10 | 13.2 | 1.38 | 12400 |  |  |
| COc1cc2c(cc1OC)/C(=C\c1ccc(N3CCN(C)CC3)c(O)c1)OC2=O |  | 5.5 | 5 | 31.4 | 2.36 | 2630 |  |  |
| COc1cc2c(cc1OC)/C(=C/c1cccc(O)c1N1CCOCC1)OC2=O | 15.1 | < 5 | 6.6 | 27.9 | 1.48 |  |  |  |
| COc1cc2c(cc1OC)C(Cc1cccc(O)c1)OC2=O (stereo unspecified) | 14.4 | < 5 | 7.9 | 6.2 | 0.95 |  |  |  |
| COc1cc2c(cc1OC)/C(=C/c1cccc(O)c1N1CCN(C)CC1)OC2=O | 22.3 | < 5 | < 5 | 29.5 | 2.09 |  |  |  |
| COc1cc2c(cc1OC)/C(=C\c1ccc(N3CCCC3)c(O)c1)OC2=O |  | 16.5 | 32 | 27.8 | 2.82 | 660 | 30.6 | 9.8 |
| COc1cc2c(cc1OC)C(Cc1cccc(O)c1N1CCCC1)OC2=O (stereo unspecified) | 19.4 | 7.1 | 10.5 | 11.3 | 1.86 |  |  |  |
| CC(=O)Oc1ccccc1C(=O)O [ASPIRIN] |  |  |  |  |  |  |  | 12.4 |
| COc1cc2c(cc1OC)C(Cc1cccc(O)c1N1CCOCC1)OC2=O (stereo unspecified) | 11 | < 5 | < 5 | 19.1 | 2.28 |  |  |  |
| COc1cc2c(cc1OC)/C(=C\c1ccc(N3CCOCC3)c(O)c1)OC2=O |  | 5.7 | 18.7 | 13 | 1.76 | 2430 | 24.9 |  |
| COc1cc2c(cc1OC)/C(=C/c1cccc(O)c1N1CCCC1)OC2=O |  | 8.8 | < 5 | 10.3 | 2.18 | 8860 |  |  |
